# Experiments:
# [1] = tested on: U2OS line transduced with the Bmal 1-Luc reporter; experiment: Period of the circadian rhythm in U2OS cells with Bmal1-Luc reporter (luminescence, cosinor analysis); assay type: cell-based, Human; conditions: U2OS, DMSO control = 1.00
# Procedure: Human osteosarcoma U2OS cells were grown in standard DMEM medium with 10% fetal bovine serum. U2OS cells were transduced with lentiviral particles containing a Bmall-Luc fusion reporter and selected under Blasticidin. The cell line was clonally expanded and a single monoclonal cell line was used for further experiments. Cells were cultured in a 384-well plate in growth medium to 90+% confluence. Test compound or vehicle (DMSO) was applied to recording medium with 100 U/ml penicillin, 100 ug/ml streptomycin, 1x GlutaMAX, 10% fetal bovine serum, and 0.1 mM Luciferin-EF. Luminescence was recorded every hour for the next 144 hours. Circadian rhythm analysis was performed using cosinor analysis.
# The length of the period was expressed relative to the period of cells affected only by DMSO vehicle (their period is therefore 1.00). […] The overall effect on circadian oscillations unequivocally proves that the compounds of formula I can be also used to temporally modulate the concentration and activity of not only BMAL1, but also other components of the oscillator including the critical components PER2, CRY and CLOCK in time, as these are an essential part of the mechanism generating the rhythmic expression of the luminescent reporter used. The concentration and level of other proteins, whose rhythmic expression is controlled by an oscillator in the brain and peripheral tissues (so-called clock-controlled genes), are also necessarily affected. The influence of the compounds of formula I on the activity of oscillator components and subordinate genes also means influencing the physiological processes of the cell controlled by these genes and proteins. N^6-furfuryladenine was used as a reference compound. […] The ability to shift the phase of the circadian cycle can be seen in FIG. 2.
# [2] = tested on: NIH3T3 line transfected with the Per2-Luc reporter; experiment: Period of the circadian rhythm in NIH3T3 fibroblasts with Per2-Luc reporter (luminescence, cosinor analysis); assay type: cell-based, mouse; conditions: NIH3T3, DMSO control = 1.00
# Procedure: NIH3T3 mouse embryonic fibroblasts were grown in standard DMEM with 10% fetal bovine serum. NIH3T3 cells were transfected with 1 μg of Per2-Luc reporter using GeneJuice and selected under hygromycin. The cell line was clonally expanded and a single monoclonal cell line was used for further experiments. Cells were cultured in a 96-well plate in growth medium to 90+% confluence. Test compound or vehicle (DMSO) was applied to recording medium with 100 U/ml penicillin, 100 μg/ml streptomycin, 1x GlutaMAX, 10% fetal calf serum and 0.1 mM Luciferin-EF (Promega Madison, WI, USA). Luminescence was recorded every hour for the next 144 hours. Circadian rhythm analysis was performed using cosinor analysis. Period length was expressed relative to the period of cells affected only by DMSO vehicle (their period length is therefore 1.00).
# [3] = tested on: explanted choroid plexus (ChP) of 4th brain ventricle; experiment: PER2::Luc rhythm in explanted choroid plexus (luminescence microscopy); assay type: cell-based, mouse; conditions: 200 uM, choroid plexus explant
# Procedure: FIG. 6: Compound 4 affects the circadian clock in the explanted choroid plexus (CHP). (A) Individual PER2::Luc traces in analysed single-cell-sized regions of interest (ROIs) of explanted choroid plexus (CP) cultivated over 5 days ex vivo in the presence of DMSO (left) or compound 4 (right). Cosine curve below the traces indicates average oscillation across the whole explant; see dramatic increase of period in the presence of 200 uM compound 4. […] (Example 15)
# Male mPer2Luc were kept and sacrificed under the same conditions as above. Their brains were removed, choroid plexus was dissected from the 4th ventricle in ice-cold HBSS medium and placed on Millicell Culture Inserts inside 6-well plate with test compound or DMSO vehicle in 1 ml air-buffered recording medium supplemented with 100 U/ml penicillin, 100 ug/ml streptomycin (Sigma-Aldrich, St. Luis, MO, USA), 1x GlutaMAX (ThermoFisher, Waltham, MA, USA), 1x B27 (ThermoFisher) and 0.1 mM Luciferin-EF (Promega Madison, WI, USA). The were placed inside Luminoview LV200 Miscroscope (Olympus, USA) with liquid-cooled EM-CCD camera (Hamamatsu) and luminescence was recorded by 10 min exposure every 1h.
# [4] = tested on: explanted suprachiasmatic nuclei (SCN) of the hypothalamus; experiment: PER2::Luc rhythm in organotypic explants of suprachiasmatic nucleus (LumiCycle); assay type: cell-based, mouse; conditions: ratio of period 72 h after and 72 h before application
# Procedure: FIG. 5. Compounds of formula I modulate the parameters of the circadian clock in the suprachiasmatic nucleus, the central circadian oscillator. It increases the period (left; measured as the ratio of period during 72 h after and 72 h before application of a compound) and induces phase shift (right; quantified by fitting a cosine curve before the application of a compound, extrapolating it beyond the time of application and subtracting the actual and extrapolated phases of the first full circadian cycle corrected by endogenous period of the explant, while designating phase advance as positive and phase delay as negative number in hours). (Example 14)
# Male and female mPer2Luc mice (strain B6.129S6-Per2tm1Jt/J, JAX, USA) (Yoo et al., 2004; doi: 10.1073/pnas.0308709101) were maintained in a light/dark cycle with 12 hours of light and 12 hours of darkness (LD12: 12), killed between 12:00 and 15:00, i.e. 6-9 hours after turning on the lights, by rapid cervical dislocation under isoflurane anesthesia, their brains were removed and 250 μm thick SCN slices in ice-cold HBSS medium were prepared using a vibratome (Leica, Wetzlar, Germany). Two explants containing SCN from each brain were prepared. […]
Structure (SMILES),Period length ± standard error of the mean (expressed relative to control) at the indicated concentration ([1]; 20 μM),Period length ± standard error of the mean (expressed relative to the control) at the indicated concentration ([2]; 50 μM),"Period of PER2::Luc (in words) ([3]; 5 days ex vivo, vs DMSO)",Phase of PER2::Luc (in words) ([3]; polar histogram of ROIs vs DMSO),Circadian rhythm period (in words) [4],Period length ± standard error of the mean (expressed relative to control) at the indicated concentration ([1]; 5 μM),Period length ± standard error of the mean (expressed relative to the control) at the indicated concentration ([2]; 10 μM)
"c1coc(CNc2ncnc3c2ncn3C2CCCCO2)c1 (stereo not drawn) [Compound 4, N-(furan-2-ylmethyl)-9-(tetrahydro-2H-pyran-2-yl)-9H-purin-6-amine]",20 μM: 1.08 ± 0,50 μM: 1.23 ± 0.03,"significantly (t-test, P<0.0001) increased",dramatically affected,increases the circadian rhythm period,–,–
"OCCNc1nc(NCc2ccco2)c2ncn(C3CCCCO3)c2n1 (stereo not drawn) [Compound 45, 2-({6-[(furan-2-ylmethyl)amino]-9-(tetrahydro-2H-pyran-2-yl)-9H-purin-2-yl}amino)ethan-1-ol]",20 μM: 1.04 ± 0.01,50 μM: 1.32 ± 0.01,–,–,–,–,–
Clc1nc(NCc2ccco2)c2ncn(C3CCCC3)c2n1 [Compound 6],–,–,–,–,–,5 μM: 1.23 ± 0.03,10 μM: 1.27 ± 0.01
